# Experiments:
# [1] = target: T1, FGFR1 (Homo sapiens, UniProt P11362); test: Enzyme binding assay (KINOMEscan) FGFR1; conditions: FGFR1_pKd, pKd = -log Kd (M)
# T1 construct: purchased DiscoveRx Corporation
# Method: (§1) Enzyme Binding Assays (KINOMEscan®)
# (§2) Kinase enzyme binding affinities of compounds disclosed herein were determined using the KINOMEscan® technology performed by DiscoveRx Corporation, San Diego, Calif., USA (www.kinomescan.com).
# [2] = target: T2, FGFR2 (Homo sapiens, UniProt P21802); test: Enzyme binding assay (KINOMEscan) FGFR2; conditions: pKd = -log Kd (M), read-out: FGFR2_pKd (converted)
# T2 construct: purchased DiscoveRx Corporation
# T2 sequence (P21802 22-821): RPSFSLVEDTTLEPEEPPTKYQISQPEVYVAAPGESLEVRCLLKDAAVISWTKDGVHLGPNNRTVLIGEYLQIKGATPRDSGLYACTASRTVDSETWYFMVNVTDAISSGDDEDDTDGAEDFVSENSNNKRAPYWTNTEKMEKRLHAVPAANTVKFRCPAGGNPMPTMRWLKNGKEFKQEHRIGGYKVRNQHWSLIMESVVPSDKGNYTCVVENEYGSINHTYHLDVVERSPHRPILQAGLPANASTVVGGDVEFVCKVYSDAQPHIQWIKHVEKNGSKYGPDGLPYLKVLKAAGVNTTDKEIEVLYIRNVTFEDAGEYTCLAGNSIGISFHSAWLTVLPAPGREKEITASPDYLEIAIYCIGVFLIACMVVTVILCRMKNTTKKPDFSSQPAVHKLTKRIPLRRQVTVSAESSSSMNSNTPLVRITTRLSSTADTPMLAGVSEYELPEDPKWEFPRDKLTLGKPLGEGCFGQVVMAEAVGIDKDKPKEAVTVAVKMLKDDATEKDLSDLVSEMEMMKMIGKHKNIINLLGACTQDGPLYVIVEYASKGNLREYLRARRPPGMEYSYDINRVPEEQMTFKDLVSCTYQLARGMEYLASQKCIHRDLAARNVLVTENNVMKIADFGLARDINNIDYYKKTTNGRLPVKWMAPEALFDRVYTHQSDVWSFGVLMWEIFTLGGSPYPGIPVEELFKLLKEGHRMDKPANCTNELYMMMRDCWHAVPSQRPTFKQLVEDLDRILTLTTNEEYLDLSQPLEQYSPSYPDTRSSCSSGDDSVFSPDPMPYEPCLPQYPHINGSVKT
# Method: as §1, §2
# [3] = target: T3, FGFR3 (Homo sapiens, UniProt P22607); test: Enzyme binding assay (KINOMEscan) FGFR3; conditions: pKd = -log Kd (M), read-out: FGFR3_pKd (converted)
# T3 construct: purchased DiscoveRx Corporation
# T3 sequence (P22607 23-806): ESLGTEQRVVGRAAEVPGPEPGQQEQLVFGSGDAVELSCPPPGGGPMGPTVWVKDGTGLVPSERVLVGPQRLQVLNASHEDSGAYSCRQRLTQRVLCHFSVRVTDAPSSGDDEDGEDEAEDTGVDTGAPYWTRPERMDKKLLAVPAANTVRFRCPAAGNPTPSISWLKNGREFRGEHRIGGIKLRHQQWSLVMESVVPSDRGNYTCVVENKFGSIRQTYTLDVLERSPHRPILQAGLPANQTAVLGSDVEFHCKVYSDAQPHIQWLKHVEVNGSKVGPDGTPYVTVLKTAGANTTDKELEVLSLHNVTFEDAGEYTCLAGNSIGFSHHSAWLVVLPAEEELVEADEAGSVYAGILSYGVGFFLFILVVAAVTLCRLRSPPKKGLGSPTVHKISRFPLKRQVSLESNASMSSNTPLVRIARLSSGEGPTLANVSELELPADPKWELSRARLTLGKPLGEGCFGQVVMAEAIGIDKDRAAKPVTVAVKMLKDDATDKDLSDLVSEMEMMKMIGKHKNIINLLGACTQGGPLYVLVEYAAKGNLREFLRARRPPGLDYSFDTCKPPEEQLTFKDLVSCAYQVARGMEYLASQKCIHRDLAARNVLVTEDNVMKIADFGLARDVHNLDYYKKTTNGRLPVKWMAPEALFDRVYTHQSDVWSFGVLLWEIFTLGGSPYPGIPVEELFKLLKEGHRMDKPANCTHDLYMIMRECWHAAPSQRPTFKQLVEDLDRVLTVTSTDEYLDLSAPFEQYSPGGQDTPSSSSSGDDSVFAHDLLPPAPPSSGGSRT
# Method: as §1, §2
# [4] = target: T4, FGFR4 (Homo sapiens, UniProt P22455); test: Enzyme binding assay (KINOMEscan) FGFR4; conditions: pKd = -log Kd (M), read-out: FGFR4_pKd (converted)
# T4 construct: purchased DiscoveRx Corporation
# T4 sequence (P22455 22-802): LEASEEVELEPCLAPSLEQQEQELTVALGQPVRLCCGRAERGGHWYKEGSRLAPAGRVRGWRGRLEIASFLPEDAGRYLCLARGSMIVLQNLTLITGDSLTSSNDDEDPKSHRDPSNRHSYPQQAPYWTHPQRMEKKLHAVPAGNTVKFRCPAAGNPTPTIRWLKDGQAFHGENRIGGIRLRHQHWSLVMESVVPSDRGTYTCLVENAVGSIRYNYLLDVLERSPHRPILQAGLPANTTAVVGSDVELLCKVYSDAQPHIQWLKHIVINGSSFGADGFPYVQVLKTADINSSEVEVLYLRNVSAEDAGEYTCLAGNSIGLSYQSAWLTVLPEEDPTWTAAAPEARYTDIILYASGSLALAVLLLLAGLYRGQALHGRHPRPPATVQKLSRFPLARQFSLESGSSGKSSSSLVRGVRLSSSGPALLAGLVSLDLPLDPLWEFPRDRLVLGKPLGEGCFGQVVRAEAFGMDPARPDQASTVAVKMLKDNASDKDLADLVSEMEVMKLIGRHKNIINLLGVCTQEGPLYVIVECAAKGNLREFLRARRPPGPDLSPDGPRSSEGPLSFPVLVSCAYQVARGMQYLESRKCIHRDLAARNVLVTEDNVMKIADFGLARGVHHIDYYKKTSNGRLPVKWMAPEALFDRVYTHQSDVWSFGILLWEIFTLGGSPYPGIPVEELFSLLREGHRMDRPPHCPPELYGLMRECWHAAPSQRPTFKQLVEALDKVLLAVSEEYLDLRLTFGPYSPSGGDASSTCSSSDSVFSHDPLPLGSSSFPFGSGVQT
# Method: as §1, §2
# [5] = target: T5, VEGFR2 (Homo sapiens, UniProt P35968); test: Enzyme binding assay (KINOMEscan) VEGFR2; conditions: pKd = -log Kd (M), read-out: VEGFR2_pKd (converted)
# T5 construct: purchased DiscoveRx Corporation
# T5 sequence (P35968 20-1356): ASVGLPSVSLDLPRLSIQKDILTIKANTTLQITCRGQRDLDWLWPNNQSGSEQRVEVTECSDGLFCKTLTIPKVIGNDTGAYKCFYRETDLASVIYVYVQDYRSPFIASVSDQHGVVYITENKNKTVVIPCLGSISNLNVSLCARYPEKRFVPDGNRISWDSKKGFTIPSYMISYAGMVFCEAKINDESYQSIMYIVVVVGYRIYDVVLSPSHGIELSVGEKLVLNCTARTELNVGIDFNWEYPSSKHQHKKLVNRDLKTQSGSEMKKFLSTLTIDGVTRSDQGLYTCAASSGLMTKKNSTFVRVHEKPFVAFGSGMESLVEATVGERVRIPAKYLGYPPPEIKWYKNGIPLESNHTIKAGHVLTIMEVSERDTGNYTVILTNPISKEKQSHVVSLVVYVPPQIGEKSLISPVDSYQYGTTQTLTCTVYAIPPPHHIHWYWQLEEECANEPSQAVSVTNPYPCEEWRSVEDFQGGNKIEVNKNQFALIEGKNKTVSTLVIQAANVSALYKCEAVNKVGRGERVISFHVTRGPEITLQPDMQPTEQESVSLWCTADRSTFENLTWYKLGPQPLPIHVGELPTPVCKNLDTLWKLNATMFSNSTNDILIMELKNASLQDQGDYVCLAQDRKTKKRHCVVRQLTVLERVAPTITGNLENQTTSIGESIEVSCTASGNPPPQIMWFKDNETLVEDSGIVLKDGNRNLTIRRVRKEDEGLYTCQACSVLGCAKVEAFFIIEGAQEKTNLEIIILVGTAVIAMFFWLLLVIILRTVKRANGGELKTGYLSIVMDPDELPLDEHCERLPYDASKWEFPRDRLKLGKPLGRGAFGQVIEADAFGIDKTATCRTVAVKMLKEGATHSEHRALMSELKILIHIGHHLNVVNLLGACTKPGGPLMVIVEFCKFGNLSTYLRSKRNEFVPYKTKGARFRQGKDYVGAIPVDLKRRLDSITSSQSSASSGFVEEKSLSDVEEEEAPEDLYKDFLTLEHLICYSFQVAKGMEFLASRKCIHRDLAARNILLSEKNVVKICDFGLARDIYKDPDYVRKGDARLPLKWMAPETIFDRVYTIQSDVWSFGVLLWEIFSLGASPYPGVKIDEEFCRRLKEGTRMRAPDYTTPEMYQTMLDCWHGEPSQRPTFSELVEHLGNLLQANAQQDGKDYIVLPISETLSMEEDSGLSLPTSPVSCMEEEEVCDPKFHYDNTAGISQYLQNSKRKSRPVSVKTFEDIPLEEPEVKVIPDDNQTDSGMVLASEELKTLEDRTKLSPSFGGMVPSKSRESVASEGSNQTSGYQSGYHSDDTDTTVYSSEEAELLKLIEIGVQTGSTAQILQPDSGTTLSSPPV
# Method: as §1, §2
# T1 sequence (P11362 22-822): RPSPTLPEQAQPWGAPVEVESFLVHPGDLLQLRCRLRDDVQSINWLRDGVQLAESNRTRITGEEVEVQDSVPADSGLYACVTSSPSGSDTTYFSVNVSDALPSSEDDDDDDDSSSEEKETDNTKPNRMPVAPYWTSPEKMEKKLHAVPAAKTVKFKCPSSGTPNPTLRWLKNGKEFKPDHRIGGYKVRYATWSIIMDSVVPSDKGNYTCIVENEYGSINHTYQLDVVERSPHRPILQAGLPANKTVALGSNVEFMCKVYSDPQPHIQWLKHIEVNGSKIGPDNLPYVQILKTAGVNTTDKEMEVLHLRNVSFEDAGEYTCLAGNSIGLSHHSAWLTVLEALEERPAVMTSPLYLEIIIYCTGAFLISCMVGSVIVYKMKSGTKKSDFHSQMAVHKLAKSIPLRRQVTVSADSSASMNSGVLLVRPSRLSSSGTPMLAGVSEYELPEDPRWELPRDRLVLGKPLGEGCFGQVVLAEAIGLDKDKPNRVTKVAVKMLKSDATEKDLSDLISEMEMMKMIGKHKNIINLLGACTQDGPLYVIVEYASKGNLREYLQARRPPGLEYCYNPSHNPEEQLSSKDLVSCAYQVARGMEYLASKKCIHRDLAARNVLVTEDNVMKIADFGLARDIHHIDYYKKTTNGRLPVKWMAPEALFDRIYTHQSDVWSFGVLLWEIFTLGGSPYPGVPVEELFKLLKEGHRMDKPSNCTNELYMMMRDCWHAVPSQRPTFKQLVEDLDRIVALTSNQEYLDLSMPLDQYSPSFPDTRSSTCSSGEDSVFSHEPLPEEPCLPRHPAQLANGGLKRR
SMILES,melting point [°C],Kd [1] [M],Kd [2] [M],Kd [3] [M],Kd [4] [M],Kd [5] [M]
COc1cc(OC)c(F)c(N(Cc2nccn2S(=O)(=O)N(C)C)c2ccc3ncn(C4CCN(C(=O)OC(C)(C)C)CC4)c(=O)c3c2)c1F,168,,,,,
COc1cc(OC)c(F)c(N(CCCNC(C)C)c2ccc3ncn(C4CCNCC4)c(=O)c3c2)c1,140,,,,,
COc1cc(OC)cc(N(CCCNC(C)C)c2ccc3ncn(C4CCNCC4)c(=O)c3c2)c1,255,,,,,
COc1cc(OC)c(F)c(N(CCO)c2ccc3ncn(-c4cccnc4)c(=O)c3c2)c1F [Compound 29],112,1.58e-08,3.16e-09,6.31e-09,5.01e-08,6.31e-07
COc1cc(OC)c(F)c(N(CCO)c2ccc3ncn(-c4cccnc4)c(=O)c3c2)c1 [Compound 30],186,2.51e-07,3.98e-08,6.31e-08,5.01e-07,> 3.16e-06
COc1cc(OC)cc(N(CCO)c2ccc3ncn(-c4cccnc4)c(=O)c3c2)c1 [Compound 31],168,,5.01e-07,,> 3.16e-06,> 3.16e-06
COc1cc(OC)c(F)c(N(CCNC(C)C)c2ccc3ncn(-c4cccnc4)c(=O)c3c2)c1 [Compound 33],133,5.01e-09,1.58e-08,7.94e-09,2.51e-08,1.58e-06
COc1cc(OC)cc(N(CCNC(C)C)c2ccc3ncn(-c4cccnc4)c(=O)c3c2)c1 [Compound 34],136,6.31e-08,5.01e-08,1.26e-07,6.31e-07,> 3.16e-06
COc1cc(OC)c(F)c(N(Cc2nccn2S(=O)(=O)N(C)C)c2ccc3ncn(-c4cccnc4)c(=O)c3c2)c1F [Compound 35],128,5.01e-08,1.58e-08,3.98e-08,1.26e-07,1.26e-06
COc1cc(OC)c(F)c(N(Cc2nccn2S(=O)(=O)N(C)C)c2ccc3ncn(-c4cccnc4)c(=O)c3c2)c1 [Compound 36],108,1.58e-07,1e-07,2.51e-07,1.26e-06,> 3.16e-06
COc1cc(OC)c(F)c(N(CCO)c2ccc3ncn(-c4ccncc4)c(=O)c3c2)c1F [Compound 37],198,1.58e-08,2.51e-09,5.01e-09,5.01e-08,
COc1cc(OC)c(F)c(N(CCO)c2ccc3ncn(-c4ccncc4)c(=O)c3c2)c1 [Compound 38],209,1e-07,2e-08,3.16e-08,1.58e-07,> 3.16e-06
COc1cc(OC)c(F)c(N(Cc2nccn2S(=O)(=O)N(C)C)c2ccc3ncn(-c4ccncc4)c(=O)c3c2)c1F [Compound 40],139,3.98e-08,3.16e-08,6.31e-08,2.51e-07,1.58e-06
COc1cc(OC)c(F)c(N(Cc2nccn2S(=O)(=O)N(C)C)c2ccc3ncn(-c4ccncc4)c(=O)c3c2)c1 [Compound 41],,1e-07,3.16e-08,1.26e-07,7.94e-07,> 3.16e-06
COc1cc(OC)c(F)c(N(Cc2ncc[nH]2)c2ccc3ncn(C4CCNCC4)c(=O)c3c2)c1F [Compound 43],223,1.58e-08,7.94e-09,2e-08,5.01e-08,> 3.16e-06
COc1cc(OC)cc(N(Cc2ncc[nH]2)c2ccc3ncn(C4CCNCC4)c(=O)c3c2)c1 [Compound 44],220,3.98e-07,1.58e-07,3.98e-07,> 3.16e-06,> 3.16e-06
COc1cc(OC)c(F)c(N(Cc2ncc[nH]2)c2ccc3ncn(C4CCNCC4)c(=O)c3c2)c1 [Compound 45],260,7.94e-08,3.16e-08,7.94e-08,5.01e-07,> 3.16e-06
COc1cc(OC)c(F)c(N(CCO)c2ccc3ncn(C4CCNCC4)c(=O)c3c2)c1F [Compound 46],186,1e-07,3.98e-08,1e-07,7.94e-07,> 3.16e-06
COc1cc(OC)cc(N(CCO)c2ccc3ncn(C4CCNCC4)c(=O)c3c2)c1 [Compound 47],165,> 3.16e-06,> 3.16e-06,> 3.16e-06,> 3.16e-06,> 3.16e-06
COc1cc(OC)c(F)c(N(CCO)c2ccc3ncn(C4CCNCC4)c(=O)c3c2)c1 [Compound 48],173,1.26e-06,6.31e-07,7.94e-07,> 3.16e-06,> 3.16e-06

SMILES,melting point [°C],Kd [1] [M],Kd [2] [M],Kd [3] [M],Kd [4] [M],Kd [5] [M]
COc1cc(OC)cc(/C(=C\C#N)c2ccc3ncn(-c4cnn(C)c4)c(=O)c3c2)c1 [Compound 49],217,2e-06,3.98e-07,7.94e-07,> 3.16e-06,> 3.16e-06
COc1cc(OC)c(F)c(N(CCCO)c2ccc3ncn(C4CCNCC4)c(=O)c3c2)c1F [Compound 53],184,5.01e-08,3.16e-08,6.31e-08,2e-07,> 3.16e-06
COc1cc(OC)c(F)c(N(CCCO)c2ccc3ncn(C4CCNCC4)c(=O)c3c2)c1 [Compound 54],167,7.94e-07,3.16e-07,6.31e-07,> 3.16e-06,> 3.16e-06
COc1cc(OC)cc(N(CCCO)c2ccc3ncn(C4CCNCC4)c(=O)c3c2)c1 [Compound 55],167,> 3.16e-06,2.51e-06,2.51e-06,> 3.16e-06,> 3.16e-06
CNCCN(c1ccc2ncn(C3CCNCC3)c(=O)c2c1)c1c(F)c(OC)cc(OC)c1F [Compound 57],,3.16e-08,3.98e-08,6.31e-08,1.58e-07,2e-06
CNCCN(c1ccc2ncn(C3CCNCC3)c(=O)c2c1)c1cc(OC)cc(OC)c1F [Compound 58],176,3.16e-07,3.98e-07,6.31e-07,2e-06,> 3.16e-06
CNCCN(c1cc(OC)cc(OC)c1)c1ccc2ncn(C3CCNCC3)c(=O)c2c1 [Compound 59],139,,> 3.16e-06,> 3.16e-06,> 3.16e-06,> 3.16e-06
COc1cc(OC)c(F)c(N(CCCNC(C)C)c2ccc3ncn(C4CCNCC4)c(=O)c3c2)c1F [Compound 60],126,6.31e-09,5.01e-09,1.26e-08,3.98e-08,
COc1cc(OC)c(F)c(N(CCCNC(C)C)c2ccc3ncn(C4CCNCC4)c(=O)c3c2)c1 [Compound 61′],,5.01e-08,2e-08,6.31e-08,2e-07,> 3.16e-06
COc1cc(OC)c(F)c(N(CCO)c2ccc3ncn(C4CCOCC4)c(=O)c3c2)c1 [Compound 63],191,3.98e-07,6.31e-08,1.26e-07,1.58e-06,> 3.16e-06
COc1cc(OC)cc(N(CCO)c2ccc3ncn(C4CCOCC4)c(=O)c3c2)c1 [Compound 64],204,6.31e-07,3.98e-07,,> 3.16e-06,> 3.16e-06
COc1cc(OC)c(F)c(N(CCCO)c2ccc3ncn(C4CCOCC4)c(=O)c3c2)c1 [Compound 65],164,2e-07,5.01e-08,7.94e-08,,> 3.16e-06
COc1cc(OC)cc(N(CCCO)c2ccc3ncn(C4CCOCC4)c(=O)c3c2)c1 [Compound 66],,1.26e-06,5.01e-07,1.26e-06,> 3.16e-06,> 3.16e-06
COc1cc(OC)c(F)c(N(Cc2nccn2S(=O)(=O)N(C)C)c2ccc3ncn(C4CCOCC4)c(=O)c3c2)c1 [Compound 67],189,3.16e-07,2.51e-07,7.94e-07,> 3.16e-06,> 3.16e-06
COc1cc(OC)cc(N(Cc2nccn2S(=O)(=O)N(C)C)c2ccc3ncn(C4CCOCC4)c(=O)c3c2)c1 [Compound 68],,1.26e-06,,> 3.16e-06,> 3.16e-06,> 3.16e-06
COc1cc(OC)cc(N(Cc2ncc[nH]2)c2ccc3ncn(C4CCOCC4)c(=O)c3c2)c1 [Compound 69],260,1.58e-07,5.01e-08,1.58e-07,,> 3.16e-06
CNCCN(c1ccc2ncn(C3CCOCC3)c(=O)c2c1)c1cc(OC)cc(OC)c1F [Compound 70],178,3.16e-08,3.98e-08,7.94e-08,1e-07,> 3.16e-06
COc1cc(OC)c(F)c(N(CCCNC(C)C)c2ccc3ncn(C4CCOCC4)c(=O)c3c2)c1 [Compound 72],,7.94e-09,1e-08,1.58e-08,5.01e-08,2.51e-06
COc1cc(OC)cc(N(CCCNC(C)C)c2ccc3ncn(C4CCOCC4)c(=O)c3c2)c1 [Compound 73′],,1.26e-07,6.31e-08,2e-07,1.26e-06,
